Laboratory results published in ChEMBL document CHEMBL4038342, “Hydrophilic, Potent, and Selective 7-Substituted 2-Aminoquinolines as Improved Human Neuronal Nitric Oxide Synthase Inhibitors” (J Med Chem, 2017).

Assays:
Nitric oxide synthase 1 [1] = molecular target: Nitric oxide synthase 1 (Homo sapiens, UniProt P29475)
Description: Inhibition of recombinant human nNOS expressed in Escherichia coli using L-arginine as substrate after 30 secs by hemoglobin capture assay

Nitric oxide synthase 1 [2] = molecular target: Nitric oxide synthase 1 (Rattus norvegicus, UniProt P29476)
Description: Inhibition of recombinant rat nNOS expressed in Escherichia coli using L-arginine as substrate after 30 secs by hemoglobin capture assay

Nitric oxide synthase 3 = molecular target: T1, Nitric oxide synthase 3 (Bos taurus, UniProt P29473); experiment: Inhibition of recombinant bovine eNOS expressed in Escherichia coli using L-arginine as substrate after 30 secs by hemoglobin capture assay
T1 sequence (P29473 whole entry): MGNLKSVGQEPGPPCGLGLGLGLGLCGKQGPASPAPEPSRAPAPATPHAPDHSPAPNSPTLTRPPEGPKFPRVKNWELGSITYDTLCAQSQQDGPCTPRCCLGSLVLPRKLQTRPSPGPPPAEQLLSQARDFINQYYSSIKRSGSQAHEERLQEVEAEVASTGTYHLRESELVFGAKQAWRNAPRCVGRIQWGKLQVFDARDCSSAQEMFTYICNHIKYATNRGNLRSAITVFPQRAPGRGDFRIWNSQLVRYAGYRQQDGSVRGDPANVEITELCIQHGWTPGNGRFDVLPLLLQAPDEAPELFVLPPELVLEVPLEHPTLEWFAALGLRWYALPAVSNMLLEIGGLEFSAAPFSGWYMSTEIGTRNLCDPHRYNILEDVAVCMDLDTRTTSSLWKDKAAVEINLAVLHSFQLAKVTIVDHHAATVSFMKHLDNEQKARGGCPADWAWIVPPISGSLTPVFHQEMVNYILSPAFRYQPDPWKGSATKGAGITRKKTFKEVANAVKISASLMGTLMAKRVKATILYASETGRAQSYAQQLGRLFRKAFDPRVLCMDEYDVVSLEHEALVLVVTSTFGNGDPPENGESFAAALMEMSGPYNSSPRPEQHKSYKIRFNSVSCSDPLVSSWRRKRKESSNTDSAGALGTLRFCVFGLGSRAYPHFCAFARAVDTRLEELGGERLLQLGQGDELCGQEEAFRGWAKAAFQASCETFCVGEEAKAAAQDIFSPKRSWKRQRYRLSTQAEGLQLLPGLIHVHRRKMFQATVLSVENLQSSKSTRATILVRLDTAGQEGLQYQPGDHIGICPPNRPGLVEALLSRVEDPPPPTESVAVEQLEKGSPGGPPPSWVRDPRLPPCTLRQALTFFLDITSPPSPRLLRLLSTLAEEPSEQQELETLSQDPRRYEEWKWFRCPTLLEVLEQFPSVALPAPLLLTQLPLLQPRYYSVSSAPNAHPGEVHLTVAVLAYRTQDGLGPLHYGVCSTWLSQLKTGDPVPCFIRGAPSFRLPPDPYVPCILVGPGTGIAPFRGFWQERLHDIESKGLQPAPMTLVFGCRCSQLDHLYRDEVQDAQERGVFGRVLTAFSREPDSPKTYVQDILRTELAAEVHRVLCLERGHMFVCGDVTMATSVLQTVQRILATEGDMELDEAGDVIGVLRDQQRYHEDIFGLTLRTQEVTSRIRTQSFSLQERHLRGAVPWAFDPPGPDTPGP

[3] = molecular target: T2, Nitric oxide synthase, inducible (Mus musculus, UniProt P29477); experiment: Inhibition of recombinant mouse macrophage iNOS expressed in Escherichia coli using L-arginine as substrate after 30 secs by hemoglobin capture assay
T2 sequence (P29477 whole entry): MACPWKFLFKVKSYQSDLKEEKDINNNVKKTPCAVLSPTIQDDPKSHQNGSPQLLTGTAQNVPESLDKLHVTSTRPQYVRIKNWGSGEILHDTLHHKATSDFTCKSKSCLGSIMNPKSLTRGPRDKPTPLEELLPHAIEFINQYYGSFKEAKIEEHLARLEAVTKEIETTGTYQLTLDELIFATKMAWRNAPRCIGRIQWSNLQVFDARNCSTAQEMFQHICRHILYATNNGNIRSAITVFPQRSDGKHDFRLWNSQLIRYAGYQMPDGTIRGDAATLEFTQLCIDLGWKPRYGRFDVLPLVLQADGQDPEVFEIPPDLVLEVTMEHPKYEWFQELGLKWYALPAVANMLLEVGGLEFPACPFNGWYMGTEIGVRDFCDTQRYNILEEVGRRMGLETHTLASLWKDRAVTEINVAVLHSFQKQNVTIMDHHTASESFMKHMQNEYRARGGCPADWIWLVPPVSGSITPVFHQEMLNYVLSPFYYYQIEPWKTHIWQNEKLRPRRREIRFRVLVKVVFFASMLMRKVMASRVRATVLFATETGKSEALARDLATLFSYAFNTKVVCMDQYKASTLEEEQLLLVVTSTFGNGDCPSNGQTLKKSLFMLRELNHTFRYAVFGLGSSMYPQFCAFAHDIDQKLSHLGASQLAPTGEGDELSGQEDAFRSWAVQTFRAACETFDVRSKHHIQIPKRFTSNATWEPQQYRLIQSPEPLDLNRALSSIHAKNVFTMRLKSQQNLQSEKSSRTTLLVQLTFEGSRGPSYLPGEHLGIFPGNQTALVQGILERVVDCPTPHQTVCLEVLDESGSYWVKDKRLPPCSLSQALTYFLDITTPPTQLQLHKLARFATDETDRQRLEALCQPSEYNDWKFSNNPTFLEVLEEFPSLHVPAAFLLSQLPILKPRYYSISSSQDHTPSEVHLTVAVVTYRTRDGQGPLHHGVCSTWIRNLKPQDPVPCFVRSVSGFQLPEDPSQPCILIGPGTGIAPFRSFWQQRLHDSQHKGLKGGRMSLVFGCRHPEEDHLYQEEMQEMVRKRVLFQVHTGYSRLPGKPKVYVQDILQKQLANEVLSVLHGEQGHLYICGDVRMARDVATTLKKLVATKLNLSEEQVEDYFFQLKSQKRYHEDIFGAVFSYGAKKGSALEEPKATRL

[4] = Permeability from apical to basolateral side in human Caco2 cells assessed as drug recovery at 10 uM after 2 hrs by LC/MS/MS analysis; assay type: ADME, cell-based; conditions: caco-2, 2 h
[5] = Permeability from basolateral to apical side in human Caco2 cells assessed as drug recovery at 10 uM after 2 hrs by LC/MS/MS analysis; assay type: ADME, cell-based; conditions: caco-2, 2 h

Sequence of Nitric oxide synthase 1 (Homo sapiens, UniProt P29475) (P29475 whole entry): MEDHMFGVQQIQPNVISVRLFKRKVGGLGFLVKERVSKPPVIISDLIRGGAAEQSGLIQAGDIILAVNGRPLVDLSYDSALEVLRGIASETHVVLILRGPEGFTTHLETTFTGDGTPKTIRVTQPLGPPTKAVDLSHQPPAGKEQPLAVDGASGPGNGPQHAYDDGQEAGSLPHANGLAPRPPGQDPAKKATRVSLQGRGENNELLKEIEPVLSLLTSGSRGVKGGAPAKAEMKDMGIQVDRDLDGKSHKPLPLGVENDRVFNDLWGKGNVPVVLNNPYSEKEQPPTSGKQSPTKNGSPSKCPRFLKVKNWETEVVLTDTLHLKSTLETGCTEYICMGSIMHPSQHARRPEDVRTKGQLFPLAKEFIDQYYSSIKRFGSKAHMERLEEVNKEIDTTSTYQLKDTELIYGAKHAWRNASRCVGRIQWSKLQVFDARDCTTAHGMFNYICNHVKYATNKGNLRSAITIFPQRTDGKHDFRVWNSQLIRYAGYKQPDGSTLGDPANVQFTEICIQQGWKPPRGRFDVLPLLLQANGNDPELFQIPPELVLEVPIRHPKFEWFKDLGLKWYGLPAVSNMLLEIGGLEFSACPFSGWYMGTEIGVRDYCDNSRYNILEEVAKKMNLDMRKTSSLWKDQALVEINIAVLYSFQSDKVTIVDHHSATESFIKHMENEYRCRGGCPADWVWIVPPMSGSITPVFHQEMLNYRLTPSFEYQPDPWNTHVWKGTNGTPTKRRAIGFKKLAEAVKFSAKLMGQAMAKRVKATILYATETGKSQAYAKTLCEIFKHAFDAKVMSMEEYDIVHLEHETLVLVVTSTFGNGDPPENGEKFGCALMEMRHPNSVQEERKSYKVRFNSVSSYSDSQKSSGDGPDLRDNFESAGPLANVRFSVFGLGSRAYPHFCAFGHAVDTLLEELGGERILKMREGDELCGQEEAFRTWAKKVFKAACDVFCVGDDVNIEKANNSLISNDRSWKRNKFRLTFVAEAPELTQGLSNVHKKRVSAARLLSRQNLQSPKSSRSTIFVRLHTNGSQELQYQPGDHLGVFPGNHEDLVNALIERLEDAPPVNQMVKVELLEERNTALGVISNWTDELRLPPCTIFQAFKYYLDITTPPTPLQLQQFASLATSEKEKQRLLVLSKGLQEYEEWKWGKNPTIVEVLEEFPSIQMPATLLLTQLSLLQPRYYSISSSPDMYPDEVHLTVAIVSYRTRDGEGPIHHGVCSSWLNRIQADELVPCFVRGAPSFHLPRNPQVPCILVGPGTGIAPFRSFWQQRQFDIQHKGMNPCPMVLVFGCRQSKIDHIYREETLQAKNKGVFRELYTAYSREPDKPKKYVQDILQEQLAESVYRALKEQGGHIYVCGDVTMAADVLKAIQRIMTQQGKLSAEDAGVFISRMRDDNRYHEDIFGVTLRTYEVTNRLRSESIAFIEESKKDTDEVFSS
Sequence of Nitric oxide synthase 1 (Rattus norvegicus, UniProt P29476) (P29476 whole entry): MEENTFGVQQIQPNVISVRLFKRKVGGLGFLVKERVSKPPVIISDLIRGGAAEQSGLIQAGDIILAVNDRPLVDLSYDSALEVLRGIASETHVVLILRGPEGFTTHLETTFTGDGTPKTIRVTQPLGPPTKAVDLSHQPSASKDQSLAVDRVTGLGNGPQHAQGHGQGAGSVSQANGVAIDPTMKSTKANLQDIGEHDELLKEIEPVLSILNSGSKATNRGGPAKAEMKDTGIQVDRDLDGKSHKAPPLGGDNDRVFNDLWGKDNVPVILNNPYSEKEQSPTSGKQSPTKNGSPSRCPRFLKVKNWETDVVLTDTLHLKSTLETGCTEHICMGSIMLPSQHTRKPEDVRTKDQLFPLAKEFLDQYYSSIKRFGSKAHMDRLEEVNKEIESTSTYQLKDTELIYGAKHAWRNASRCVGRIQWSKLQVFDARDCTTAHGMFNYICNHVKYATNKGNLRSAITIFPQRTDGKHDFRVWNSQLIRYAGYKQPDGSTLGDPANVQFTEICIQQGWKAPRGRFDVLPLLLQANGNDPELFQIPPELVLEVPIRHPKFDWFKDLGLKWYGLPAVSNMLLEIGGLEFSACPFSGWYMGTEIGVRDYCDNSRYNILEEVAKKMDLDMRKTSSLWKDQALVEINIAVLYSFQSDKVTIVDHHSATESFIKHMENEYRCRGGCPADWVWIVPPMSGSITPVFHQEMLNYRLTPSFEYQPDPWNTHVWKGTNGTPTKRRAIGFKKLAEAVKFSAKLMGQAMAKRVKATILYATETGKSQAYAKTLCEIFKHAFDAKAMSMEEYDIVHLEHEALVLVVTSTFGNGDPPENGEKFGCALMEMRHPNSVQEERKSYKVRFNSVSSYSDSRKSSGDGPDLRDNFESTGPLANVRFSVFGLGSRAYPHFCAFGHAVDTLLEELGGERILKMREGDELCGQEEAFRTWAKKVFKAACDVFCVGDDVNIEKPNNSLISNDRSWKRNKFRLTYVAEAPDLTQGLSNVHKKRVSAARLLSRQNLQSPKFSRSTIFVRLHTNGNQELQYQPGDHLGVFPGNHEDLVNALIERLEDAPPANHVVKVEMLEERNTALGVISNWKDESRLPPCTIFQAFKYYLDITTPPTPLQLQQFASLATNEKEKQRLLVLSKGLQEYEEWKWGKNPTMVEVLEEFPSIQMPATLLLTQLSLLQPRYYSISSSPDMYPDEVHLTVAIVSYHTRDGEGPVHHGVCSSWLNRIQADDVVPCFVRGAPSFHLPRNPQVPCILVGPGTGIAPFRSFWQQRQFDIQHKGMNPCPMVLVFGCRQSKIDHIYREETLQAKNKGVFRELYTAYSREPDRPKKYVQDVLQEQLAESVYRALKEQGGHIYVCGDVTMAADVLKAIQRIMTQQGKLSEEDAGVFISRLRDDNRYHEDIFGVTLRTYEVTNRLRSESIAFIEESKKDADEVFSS

SMILES | Ki (Nitric oxide synthase 1 [1]) [µM] | Ki (Nitric oxide synthase 1 [2]) [µM] | Ki (Nitric oxide synthase 3) [µM] | Ki [3] [µM] | Drug recovery [4] [%] | Drug recovery [5] [%]
Nc1ccc2ccc(CNCCCc3cccnc3)cc2n1 | 0.108 | 0.038 | 1.04 |  |  | 
CN(C)c1ccc(CNCc2ccc3ccc(N)nc3c2)cc1 |  | 0.522 | 8.42 | 42.2 |  | 
Cc1cc(CCNCc2ccc3c(C)cc(N)nc3c2)ccc1C#N |  |  |  |  | 58.5 | 83
Cc1ccncc1CCCNCc1ccc2ccc(N)nc2c1 | 0.13 |  | 0.562 | 13.8 |  | 
CN(C)c1cccc(CNCc2ccc3ccc(N)nc3c2)c1 | 1.02 | 0.421 | 6.53 | 30.1 |  | 
COc1ccncc1CCCNCc1ccc2ccc(N)nc2c1 |  |  |  | 17.2 |  | 
